PubChem BioAssay (NCI)
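Interpolation was linear, between the two tested concentrations surrounding the appropriate level; five concentrations were tested over 48 hours in 96-well plates. TGI: concentration producing complete growth inhibition.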

Tested on: U251 CNS
Assay: DTP human tumour cell line panel, 48 h

Structure (SMILES) | TGI
CCOC(=O)C(NC(=O)Nc1ccc(Cl)cc1)(OC)C(F)(F)F (stereo unspecified) | > 100 µM
O=S1(=O)C[C@@H](NCc2ccccc2)[C@H](NCc2ccccc2)C1 | > 100 µM
COC(=O)C1(O)C(c2ccccc2)=NC2(C)CCCC21 (stereo unspecified) | > 100 µM
C=CC(=O)N1C/C(=C\c2ccc(Cl)cc2)C(=O)/C(=C/c2ccc(Cl)cc2)C1 | 0.983 µM

Tested on: KM12 colon
Assay: DTP human tumour cell line panel, 48 h

Structure (SMILES) | TGI
O=S1(=O)C[C@@H](NCc2ccccc2)[C@H](NCc2ccccc2)C1 | > 100 µM
COC(=O)C1(O)C(c2ccccc2)=NC2(C)CCCC21 (stereo unspecified) | > 100 µM
C=CC(=O)N1C/C(=C\c2ccc(Cl)cc2)C(=O)/C(=C/c2ccc(Cl)cc2)C1 | 0.866 µM

Tested on: NCI-H460 lung
Assay: DTP human tumour cell line panel, 48 h

Structure (SMILES) | TGI
O=S1(=O)C[C@@H](NCc2ccccc2)[C@H](NCc2ccccc2)C1 | > 100 µM
COC(=O)C1(O)C(c2ccccc2)=NC2(C)CCCC21 (stereo unspecified) | > 100 µM
C=CC(=O)N1C/C(=C\c2ccc(Cl)cc2)C(=O)/C(=C/c2ccc(Cl)cc2)C1 | 1.18 µM

Tested on: SK-OV-3 ovarian
Assay: DTP human tumour cell line panel, 48 h

Structure (SMILES) | TGI
CCOC(=O)C(NC(=O)Nc1ccc(Cl)cc1)(OC)C(F)(F)F (stereo unspecified) | > 100 µM
O=S1(=O)C[C@@H](NCc2ccccc2)[C@H](NCc2ccccc2)C1 | > 100 µM
COC(=O)C1(O)C(c2ccccc2)=NC2(C)CCCC21 (stereo unspecified) | > 100 µM
C=CC(=O)N1C/C(=C\c2ccc(Cl)cc2)C(=O)/C(=C/c2ccc(Cl)cc2)C1 | 1.71 µM

Tested on: NCI-H23 lung
Assay: DTP human tumour cell line panel, 48 h

Structure (SMILES) | TGI
CCOC(=O)C(NC(=O)Nc1ccc(Cl)cc1)(OC)C(F)(F)F (stereo unspecified) | > 100 µM
O=S1(=O)C[C@@H](NCc2ccccc2)[C@H](NCc2ccccc2)C1 | > 100 µM
COC(=O)C1(O)C(c2ccccc2)=NC2(C)CCCC21 (stereo unspecified) | > 100 µM
C=CC(=O)N1C/C(=C\c2ccc(Cl)cc2)C(=O)/C(=C/c2ccc(Cl)cc2)C1 | 2.15 µM

Tested on: ACHN renal
Assay: DTP human tumour cell line panel, 48 h

Structure (SMILES) | TGI
CCOC(=O)C(NC(=O)Nc1ccc(Cl)cc1)(OC)C(F)(F)F (stereo unspecified) | > 100 µM
O=S1(=O)C[C@@H](NCc2ccccc2)[C@H](NCc2ccccc2)C1 | > 100 µM
C=CC(=O)N1C/C(=C\c2ccc(Cl)cc2)C(=O)/C(=C/c2ccc(Cl)cc2)C1 | 1.02 µM

Tested on: NCI/ADR-RES ovarian
Assay: DTP human tumour cell line panel, 48 h

Structure (SMILES) | TGI
CCOC(=O)C(NC(=O)Nc1ccc(Cl)cc1)(OC)C(F)(F)F (stereo unspecified) | > 100 µM
O=S1(=O)C[C@@H](NCc2ccccc2)[C@H](NCc2ccccc2)C1 | > 100 µM
COC(=O)C1(O)C(c2ccccc2)=NC2(C)CCCC21 (stereo unspecified) | > 100 µM
C=CC(=O)N1C/C(=C\c2ccc(Cl)cc2)C(=O)/C(=C/c2ccc(Cl)cc2)C1 | 9.41 µM

Tested on: BT-549 breast
Assay: DTP human tumour cell line panel, 48 h

Structure (SMILES) | TGI
CCOC(=O)C(NC(=O)Nc1ccc(Cl)cc1)(OC)C(F)(F)F (stereo unspecified) | > 100 µM
O=S1(=O)C[C@@H](NCc2ccccc2)[C@H](NCc2ccccc2)C1 | > 100 µM
COC(=O)C1(O)C(c2ccccc2)=NC2(C)CCCC21 (stereo unspecified) | > 100 µM
C=CC(=O)N1C/C(=C\c2ccc(Cl)cc2)C(=O)/C(=C/c2ccc(Cl)cc2)C1 | 1.09 µM

Tested on: MCF7 breast
Assay: DTP human tumour cell line panel, 48 h

Structure (SMILES) | TGI
O=S1(=O)C[C@@H](NCc2ccccc2)[C@H](NCc2ccccc2)C1 | > 100 µM
C=CC(=O)N1C/C(=C\c2ccc(Cl)cc2)C(=O)/C(=C/c2ccc(Cl)cc2)C1 | 0.845 µM

Tested on: A498 renal
Assay: DTP human tumour cell line panel, 48 h

Structure (SMILES) | TGI
CCOC(=O)C(NC(=O)Nc1ccc(Cl)cc1)(OC)C(F)(F)F (stereo unspecified) | > 100 µM
COC(=O)C1(O)C(c2ccccc2)=NC2(C)CCCC21 (stereo unspecified) | > 100 µM
C=CC(=O)N1C/C(=C\c2ccc(Cl)cc2)C(=O)/C(=C/c2ccc(Cl)cc2)C1 | 1.25 µM

Tested on: MOLT-4 leukemia
Assay: DTP human tumour cell line panel, 48 h

Structure (SMILES) | TGI
O=S1(=O)C[C@@H](NCc2ccccc2)[C@H](NCc2ccccc2)C1 | > 100 µM
COC(=O)C1(O)C(c2ccccc2)=NC2(C)CCCC21 (stereo unspecified) | > 100 µM

Tested on: M14 melanoma
Assay: DTP human tumour cell line panel, 48 h

Structure (SMILES) | TGI
CCOC(=O)C(NC(=O)Nc1ccc(Cl)cc1)(OC)C(F)(F)F (stereo unspecified) | > 100 µM
O=S1(=O)C[C@@H](NCc2ccccc2)[C@H](NCc2ccccc2)C1 | > 100 µM
COC(=O)C1(O)C(c2ccccc2)=NC2(C)CCCC21 (stereo unspecified) | > 100 µM
C=CC(=O)N1C/C(=C\c2ccc(Cl)cc2)C(=O)/C(=C/c2ccc(Cl)cc2)C1 | 0.735 µM

Tested on: SF-268 CNS
Assay: DTP human tumour cell line panel, 48 h

Structure (SMILES) | TGI
CCOC(=O)C(NC(=O)Nc1ccc(Cl)cc1)(OC)C(F)(F)F (stereo unspecified) | > 100 µM
O=S1(=O)C[C@@H](NCc2ccccc2)[C@H](NCc2ccccc2)C1 | > 100 µM
COC(=O)C1(O)C(c2ccccc2)=NC2(C)CCCC21 (stereo unspecified) | > 100 µM
C=CC(=O)N1C/C(=C\c2ccc(Cl)cc2)C(=O)/C(=C/c2ccc(Cl)cc2)C1 | 0.617 µM

Tested on: T-47D breast
Assay: DTP human tumour cell line panel, 48 h

Structure (SMILES) | TGI
CCOC(=O)C(NC(=O)Nc1ccc(Cl)cc1)(OC)C(F)(F)F (stereo unspecified) | > 100 µM
O=S1(=O)C[C@@H](NCc2ccccc2)[C@H](NCc2ccccc2)C1 | > 100 µM
COC(=O)C1(O)C(c2ccccc2)=NC2(C)CCCC21 (stereo unspecified) | > 100 µM
C=CC(=O)N1C/C(=C\c2ccc(Cl)cc2)C(=O)/C(=C/c2ccc(Cl)cc2)C1 | 6.85 µM

Tested on: SF-295 CNS
Assay: DTP human tumour cell line panel, 48 h

Structure (SMILES) | TGI
O=S1(=O)C[C@@H](NCc2ccccc2)[C@H](NCc2ccccc2)C1 | > 100 µM
COC(=O)C1(O)C(c2ccccc2)=NC2(C)CCCC21 (stereo unspecified) | > 100 µM
C=CC(=O)N1C/C(=C\c2ccc(Cl)cc2)C(=O)/C(=C/c2ccc(Cl)cc2)C1 | 0.917 µM

Tested on: MALME-3M melanoma
Assay: DTP human tumour cell line panel, 48 h

Structure (SMILES) | TGI
O=S1(=O)C[C@@H](NCc2ccccc2)[C@H](NCc2ccccc2)C1 | > 100 µM
COC(=O)C1(O)C(c2ccccc2)=NC2(C)CCCC21 (stereo unspecified) | > 100 µM
C=CC(=O)N1C/C(=C\c2ccc(Cl)cc2)C(=O)/C(=C/c2ccc(Cl)cc2)C1 | 3.84 µM

Tested on: HS 578T breast
Assay: DTP human tumour cell line panel, 48 h

Structure (SMILES) | TGI
CCOC(=O)C(NC(=O)Nc1ccc(Cl)cc1)(OC)C(F)(F)F (stereo unspecified) | > 100 µM
O=S1(=O)C[C@@H](NCc2ccccc2)[C@H](NCc2ccccc2)C1 | > 100 µM
COC(=O)C1(O)C(c2ccccc2)=NC2(C)CCCC21 (stereo unspecified) | > 100 µM
C=CC(=O)N1C/C(=C\c2ccc(Cl)cc2)C(=O)/C(=C/c2ccc(Cl)cc2)C1 | 1.36 µM

Tested on: TK-10 renal
Assay: DTP human tumour cell line panel, 48 h

Structure (SMILES) | TGI
CCOC(=O)C(NC(=O)Nc1ccc(Cl)cc1)(OC)C(F)(F)F (stereo unspecified) | > 100 µM
O=S1(=O)C[C@@H](NCc2ccccc2)[C@H](NCc2ccccc2)C1 | > 100 µM
COC(=O)C1(O)C(c2ccccc2)=NC2(C)CCCC21 (stereo unspecified) | > 100 µM
C=CC(=O)N1C/C(=C\c2ccc(Cl)cc2)C(=O)/C(=C/c2ccc(Cl)cc2)C1 | 4.01 µM

Tested on: MDA-MB-435
Assay: DTP human tumour cell line panel, 48 h

Structure (SMILES) | TGI
CCOC(=O)C(NC(=O)Nc1ccc(Cl)cc1)(OC)C(F)(F)F (stereo unspecified) | > 100 µM
O=S1(=O)C[C@@H](NCc2ccccc2)[C@H](NCc2ccccc2)C1 | > 100 µM
COC(=O)C1(O)C(c2ccccc2)=NC2(C)CCCC21 (stereo unspecified) | > 100 µM
C=CC(=O)N1C/C(=C\c2ccc(Cl)cc2)C(=O)/C(=C/c2ccc(Cl)cc2)C1 | 0.785 µM

Tested on: SR leukemia
Assay: DTP human tumour cell line panel, 48 h

Structure (SMILES) | TGI
CCOC(=O)C(NC(=O)Nc1ccc(Cl)cc1)(OC)C(F)(F)F (stereo unspecified) | > 100 µM
O=S1(=O)C[C@@H](NCc2ccccc2)[C@H](NCc2ccccc2)C1 | > 100 µM
COC(=O)C1(O)C(c2ccccc2)=NC2(C)CCCC21 (stereo unspecified) | > 100 µM
C=CC(=O)N1C/C(=C\c2ccc(Cl)cc2)C(=O)/C(=C/c2ccc(Cl)cc2)C1 | > 100 µM

Tested on: CAKI-1 renal
Assay: DTP human tumour cell line panel, 48 h

Structure (SMILES) | TGI
CCOC(=O)C(NC(=O)Nc1ccc(Cl)cc1)(OC)C(F)(F)F (stereo unspecified) | > 100 µM
O=S1(=O)C[C@@H](NCc2ccccc2)[C@H](NCc2ccccc2)C1 | > 100 µM
COC(=O)C1(O)C(c2ccccc2)=NC2(C)CCCC21 (stereo unspecified) | > 100 µM
C=CC(=O)N1C/C(=C\c2ccc(Cl)cc2)C(=O)/C(=C/c2ccc(Cl)cc2)C1 | 1.32 µM

Tested on: OVCAR-5 ovarian
Assay: DTP human tumour cell line panel, 48 h

Structure (SMILES) | TGI
CCOC(=O)C(NC(=O)Nc1ccc(Cl)cc1)(OC)C(F)(F)F (stereo unspecified) | > 100 µM
O=S1(=O)C[C@@H](NCc2ccccc2)[C@H](NCc2ccccc2)C1 | > 100 µM
COC(=O)C1(O)C(c2ccccc2)=NC2(C)CCCC21 (stereo unspecified) | > 100 µM
C=CC(=O)N1C/C(=C\c2ccc(Cl)cc2)C(=O)/C(=C/c2ccc(Cl)cc2)C1 | 2.1 µM

Tested on: PC-3 prostate
Assay: DTP human tumour cell line panel, 48 h

Structure (SMILES) | TGI
CCOC(=O)C(NC(=O)Nc1ccc(Cl)cc1)(OC)C(F)(F)F (stereo unspecified) | > 100 µM
O=S1(=O)C[C@@H](NCc2ccccc2)[C@H](NCc2ccccc2)C1 | > 100 µM
COC(=O)C1(O)C(c2ccccc2)=NC2(C)CCCC21 (stereo unspecified) | > 100 µM
C=CC(=O)N1C/C(=C\c2ccc(Cl)cc2)C(=O)/C(=C/c2ccc(Cl)cc2)C1 | 0.751 µM

Tested on: OVCAR-8 ovarian
Assay: DTP human tumour cell line panel, 48 h

Structure (SMILES) | TGI
CCOC(=O)C(NC(=O)Nc1ccc(Cl)cc1)(OC)C(F)(F)F (stereo unspecified) | > 100 µM
O=S1(=O)C[C@@H](NCc2ccccc2)[C@H](NCc2ccccc2)C1 | > 100 µM
COC(=O)C1(O)C(c2ccccc2)=NC2(C)CCCC21 (stereo unspecified) | > 100 µM
C=CC(=O)N1C/C(=C\c2ccc(Cl)cc2)C(=O)/C(=C/c2ccc(Cl)cc2)C1 | 3.84 µM

Tested on: HCC-2998 colon
Assay: DTP human tumour cell line panel, 48 h

Structure (SMILES) | TGI
CCOC(=O)C(NC(=O)Nc1ccc(Cl)cc1)(OC)C(F)(F)F (stereo unspecified) | 32.7 µM
O=S1(=O)C[C@@H](NCc2ccccc2)[C@H](NCc2ccccc2)C1 | > 100 µM
COC(=O)C1(O)C(c2ccccc2)=NC2(C)CCCC21 (stereo unspecified) | > 100 µM
C=CC(=O)N1C/C(=C\c2ccc(Cl)cc2)C(=O)/C(=C/c2ccc(Cl)cc2)C1 | 0.739 µM

Tested on: LOX IMVI melanoma
Assay: DTP human tumour cell line panel, 48 h

Structure (SMILES) | TGI
CCOC(=O)C(NC(=O)Nc1ccc(Cl)cc1)(OC)C(F)(F)F (stereo unspecified) | > 100 µM
O=S1(=O)C[C@@H](NCc2ccccc2)[C@H](NCc2ccccc2)C1 | > 100 µM
COC(=O)C1(O)C(c2ccccc2)=NC2(C)CCCC21 (stereo unspecified) | > 100 µM
C=CC(=O)N1C/C(=C\c2ccc(Cl)cc2)C(=O)/C(=C/c2ccc(Cl)cc2)C1 | 0.229 µM

Tested on: OVCAR-4 ovarian
Assay: DTP human tumour cell line panel, 48 h

Structure (SMILES) | TGI
O=S1(=O)C[C@@H](NCc2ccccc2)[C@H](NCc2ccccc2)C1 | > 100 µM
COC(=O)C1(O)C(c2ccccc2)=NC2(C)CCCC21 (stereo unspecified) | > 100 µM
C=CC(=O)N1C/C(=C\c2ccc(Cl)cc2)C(=O)/C(=C/c2ccc(Cl)cc2)C1 | 1.22 µM

Tested on: OVCAR-3 ovarian
Assay: DTP human tumour cell line panel, 48 h

Structure (SMILES) | TGI
O=S1(=O)C[C@@H](NCc2ccccc2)[C@H](NCc2ccccc2)C1 | > 100 µM
COC(=O)C1(O)C(c2ccccc2)=NC2(C)CCCC21 (stereo unspecified) | > 100 µM
C=CC(=O)N1C/C(=C\c2ccc(Cl)cc2)C(=O)/C(=C/c2ccc(Cl)cc2)C1 | 1.03 µM

Tested on: UO-31 renal
Assay: DTP human tumour cell line panel, 48 h

Structure (SMILES) | TGI
O=S1(=O)C[C@@H](NCc2ccccc2)[C@H](NCc2ccccc2)C1 | > 100 µM
